In ChEMBL document CHEMBL1125541, “Synthesis and antiviral evaluation of N-carboxamidine-substituted analogues of 1-beta-D-ribofuranosyl-1,2,4-triazole-3-carboxamidine hydrochloride” (J Med Chem, 1992):
≈ marks a conversion by molar mass, not a printed value. Where “and” joins values, the source holds several entries; their conditions need not be identical. Identical values can stand only once.

What was measured:
[1] = Therapeutic index is expressed as ratio of TC50/IC50; settings: for selectivity ratio: read-out: TI50
[2] = Compound was tested in vitro for antiviral activity against Punta Toro (PT) virus (Concentration required for the 50%inhibition of virus-induced cell death); inactive; assay type: functional
[3] = Compound was tested in vitro for antiviral activity against dengue-4- virus (Concentration which was cytotoxic to 50% of uninfected cells); settings: read-out: TC50 (the source's name)
[4] = Compound was tested in vitro for antiviral activity against Punta Toro (PT) virus (Concentration which was cytotoxic to 50% of uninfected cells); settings: read-out: TC50 (the source's name)
dengue virus type 4 [5] = test: Compound was tested in vitro for antiviral activity against dengue-4- virus (Concentration required for the 50%inhibition of virus-induced cell death); assay type: functional, organism-based
[6] = Compound was tested in vitro for antiviral activity against sandfly fever-Sicilian (SF) virus (Concentration required for the 50%inhibition of virus-induced cell death); inactive; assay type: functional
[7] = Compound was tested in vitro for antiviral activity against sandfly fever-Sicilian (SF) virus (Concentration which was cytotoxic to 50% of uninfected cells); settings: read-out: TC50 (the source's name)
[8] = Compound was tested in vitro for antiviral activity against sandfly fever-Sicilian (SF) virus (Concentration required for the 50%inhibition of virus-induced cell death); assay type: functional
[9] = Compound was tested in vitro for antiviral activity against Punta Toro (PT) virus (Concentration required for the 50%inhibition of virus-induced cell death); assay type: functional
[10] = Compound was tested in vitro for antiviral activity against vaccinia virus (Concentration which was cytotoxic to 50% of uninfected cells); assay type: organism-based; settings: orthopoxvirus vaccinia, read-out: TC50 (the source's name)
dengue virus type 4 [11] = test: Compound was tested in vitro for antiviral activity against dengue-4-virus (Concentration required for the 50%inhibition of virus-induced cell death); assay type: functional, organism-based
Vaccinia virus = test: Compound was tested in vitro for antiviral activity against vaccinia virus (Concentration required for the 50%inhibition of virus-induced cell death); assay type: functional, organism-based; settings: Orthopoxvirus vaccinia
[12] = Compound was tested in vitro for antiviral activity against dengue-4-virus (Concentration which was cytotoxic to 50% of uninfected cells); settings: dengue virus type 4, uninfected cells; read-out: TC50 (the source's name)
Influenza A virus [13] = test: Compound was tested in vitro for antiviral activity against influenza B virus (Concentration required for the 50%inhibition of virus-induced cell death); assay type: functional, organism-based
[14] = Compound was tested in vitro for antiviral activity against respiratory syncitial virus (Concentration which was cytotoxic to 50% of uninfected cells); settings: read-out: TC50 (the source's name)
[15] = Compound was tested in vitro for antiviral activity against influenza A virus (Concentration which was cytotoxic to 50% of uninfected cells); assay type: organism-based; settings: read-out: TC50 (the source's name)
[16] = test system: Respiratory syncytial virus; test: Compound was tested in vitro for antiviral activity against respiratory syncitial virus (Concentration required for the 50%inhibition of virus-induced cell death); assay type: functional, organism-based; settings: human respiratory syncytial virus
Influenza A virus [17] = test: Compound was tested in vitro for antiviral activity against influenza A virus (Concentration required for the 50%inhibition of virus-induced cell death); assay type: functional, organism-based
[18] = Compound was tested in vitro for antiviral activity against parainfluenza type 3 virus (Concentration which was cytotoxic to 50% of uninfected cells); settings: human respirovirus 3, uninfected cells; read-out: TC50 (the source's name)
Human respirovirus 3 = test: Compound was tested in vitro for antiviral activity against parainfluenza type 3 virus (Concentration required for the 50%inhibition of virus-induced cell death); assay type: functional, organism-based
[19] = Compound was tested in vitro for antiviral activity against Punta Toro (PT) virus (Concentration required for the 50%inhibition of virus-induced cell death); IA - Viral cytopathic effect reduced 25%-49% only.; assay type: functional

N#C/N=C(/N)c1ncn(C2O[C@H](CO)[C@@H](O)[C@H]2O)n1 (some centres not stated)
selectivity ratio [1]: > 1
IC50 [2]: Not Active
CC50 [3]: > 250 µg/mL
CC50 [4]: > 1000 µg/mL
IC50 (dengue virus type 4 [5]): 250 µg/mL (≈ 932 µM)
IC50 [6]: Not Active
CC50 [7]: > 1000 µg/mL

Cl.OC[C@H]1O[C@@H](n2cnc(C3=NCC(O)CN3)n2)[C@H](O)[C@@H]1O (some centres not stated)
IC50 [2]: Not Active
CC50 [4]: > 320 µg/mL
IC50 [6]: Not Active
CC50 [7]: > 320 µg/mL

C/N=C(\NC)c1ncn([C@@H]2O[C@H](CO)[C@@H](O)[C@H]2O)n1.Cl
IC50 [8]: 94 µg/mL
IC50 [9]: 181 µg/mL
CC50 [10]: > 1000 µg/mL
CC50 [4]: 2900 µg/mL
IC50 (dengue virus type 4 [11]): 162 µg/mL
IC50 (Vaccinia virus): 184 µg/mL
CC50 [12]: > 250 µg/mL
CC50 [7]: > 1000 µg/mL

CCCC/N=C(/N)c1ncn(C2O[C@H](CO)[C@@H](O)[C@H]2O)n1 (some centres not stated)
TI50 [1]: 16
selectivity ratio [1]: 13.7
IC50 [8]: 73 µg/mL (≈ 244 µM)
IC50 [9]: 41 µg/mL (≈ 137 µM)
CC50 [4]: 660 µg/mL (≈ 2200 µM)
CC50 [7]: > 1000 µg/mL

NC(=O)CCC(/N=C(/N)c1ncn(C2O[C@H](CO)[C@@H](O)[C@H]2O)n1)C(=O)O (some centres not stated)
IC50 [8]: 547 µg/mL (≈ 1470 µM)
IC50 [9]: 2690 µg/mL (≈ 7220 µM)
CC50 [4]: > 3200 µg/mL
CC50 [7]: > 3200 µg/mL

CNC(=O)c1ncn([C@@H]2O[C@H](CO)[C@@H](O)[C@H]2O)n1
IC50 [2]: Not Active
CC50 [4]: > 320 µg/mL
IC50 [6]: Not Active
CC50 [7]: > 320 µg/mL

CCCCCCCC/N=C(/N)c1ncn(C2O[C@H](CO)[C@@H](O)[C@H]2O)n1 (some centres not stated)
selectivity ratio [1]: > 3
IC50 [8]: 339 µg/mL (≈ 954 µM)
IC50 [2]: Not Active
CC50 [4]: > 1000 µg/mL
CC50 [7]: > 1000 µg/mL

Cl.N=C(N)c1ncn([C@@H]2O[C@H](CO)[C@@H](O)[C@H]2O)n1 [TARIBAVIRIN HYDROCHLORIDE]
IC50 [8]: 36 µg/mL
IC50 (Influenza A virus [13]): 48 µg/mL
IC50 [9]: 83 µg/mL
CC50 [10]: > 320 µg/mL
CC50 ([14]; human respiratory syncytial virus): > 1000 µg/mL
CC50 [4]: 752 µg/mL
CC50 [15]: > 1000 µg/mL
IC50 (dengue virus type 4 [5]): 100 µg/mL
IC50 [16]: 16 µg/mL
IC50 (Vaccinia virus): 59 µg/mL
CC50 [12]: 250 µg/mL
CC50 [7]: 800 µg/mL

COC(=N)c1ncn([C@@H]2O[C@H](CO)[C@@H](O)[C@H]2O)n1
TI50 [1]: 8.6 and 3.7 and > 3.3
IC50 [8]: 98 µg/mL (≈ 380 µM)
IC50 [9]: 201 µg/mL (≈ 778 µM)
CC50 [4]: 744 µg/mL (≈ 2880 µM)
IC50 (dengue virus type 4 [11]): 76 µg/mL (≈ 294 µM)
CC50 [12]: > 250 µg/mL
CC50 [7]: 840 µg/mL (≈ 3250 µM)

C/N=C(/N)c1ncn([C@@H]2O[C@H](CO)[C@@H](O)[C@H]2O)n1.Cl
IC50 [8]: 104 µg/mL
IC50 [9]: 250 µg/mL
IC50 (Influenza A virus [17]): 63 µg/mL
CC50 [18]: > 1000 µg/mL
CC50 [10]: > 320 µg/mL
CC50 ([14]; respiratory syncytial virus): > 1000 µg/mL
CC50 [4]: > 1000 µg/mL
CC50 [15]: > 1000 µg/mL
IC50 (Human respirovirus 3): 125 µg/mL
IC50 [16]: 24 µg/mL
IC50 (Vaccinia virus): 198 µg/mL
CC50 [7]: > 1000 µg/mL

N/C(=N/CC(=O)O)c1ncn(C2O[C@H](CO)[C@@H](O)[C@H]2O)n1 (some centres not stated)
selectivity ratio [1]: > 5.66
IC50 [8]: 566 µg/mL (≈ 1880 µM)
CC50 [4]: > 1000 µg/mL
IC50 [19]: Not Active
CC50 [7]: > 3200 µg/mL

NC(=O)CC(/N=C(/N)c1ncn(C2O[C@H](CO)[C@@H](O)[C@H]2O)n1)C(=O)O (some centres not stated)
IC50 [8]: 484 µg/mL (≈ 1350 µM)
IC50 [9]: 1600 µg/mL (≈ 4470 µM)
CC50 [4]: > 3200 µg/mL
CC50 [7]: > 3200 µg/mL

Cl.OC[C@H]1O[C@@H](n2cnc(C3=NCCCN3)n2)[C@H](O)[C@@H]1O
IC50 [2]: Not Active
CC50 [4]: > 3200 µg/mL
IC50 [6]: Not Active
CC50 [7]: > 3200 µg/mL
